From patent publication US20240075017A1 (priority 2021, published 2024)
Entries after “also recorded” stand apart in the source; their conditions may differ.

Columns and labels:
SARS-CoV-2-GFP = format: cell-based
[1] = tested on: wild-type (wt) SARS-CoV-2; assay: Plaque assay of released viral progeny from pre-treated Vero E6 cells; format: cell-based; details: 6 h pre-treatment, range of concentrations, MOI 0.01, 48 hours post-infection
[2] = tested on: SARS-CoV-2 (strain MUC-IMB-1); assay: Viral nucleoprotein (NP) western blot in A549-ACE2 cells; format: cell-based
[3] = tested on: SARS-CoV (strain Frankfurt 1); format: cell-based; details: A549-ACE2 cells, 6 h pre-treatment, 24 hours infection
[4] = tested on: SARS-CoV-2 (strain MUC-IMB-1); assay: NP immunofluorescence in primary normal human bronchial cells (NHBE) ex vivo; format: cell-based; details: 6 h pre-treatment, MOI 3, 24 hours post-infection
[5] = tested on: SARS-CoV-2 (strain MUC-IMB-1); format: cell-based
NHBE cells = format: cell-based, human
IL6 = format: cell-based, human; details: NHBEs, 0.75 μM, mock-, SARS-CoV or SARS-CoV-2 infected, 24 h post-infection
IP-10 = assay: Secreted IP10 by ELISA in NHBEs; format: cell-based, human
SARS-CoV = details: described previously (ref. 70); cited from earlier work

NC(CCSCCCCC(=O)O)C(=O)O (racemic) [CBHcy, S-(4-Carboxybutyl)-D,L-homocysteine]
antiviral activity: growth of SARS-CoV-2-GFP reporter virus (SARS-CoV-2-GFP): have antiviral activity against SARS-CoV-2
released viral progeny in the supernatant by plaque assay [1]: dose-dependent suppression of the wt SARS-CoV-2

Nc1ncnc2c1ncn2C[C@@H](O)[C@@H](O)C(=O)O [DER, D-eritadenine]
antiviral activity: growth of SARS-CoV-2-GFP reporter virus (SARS-CoV-2-GFP): have antiviral activity against SARS-CoV-2

Nc1nccc2c1ncn2[C@@H]1C=C(CO)[C@@H](O)[C@H]1O [DZNep, 3-deazaneplanocin A]
antiviral activity: growth of SARS-CoV-2-GFP reporter virus (SARS-CoV-2-GFP): have antiviral activity against SARS-CoV-2; also recorded: particularly strong antiviral efficacy
role of STAT1 dependent interferon response in SARS-CoV-2 inhibition by the compound (SARS-CoV-2-GFP; STAT1 KO vs NTC A549-ACE2 cells, 6 h pre-treatment with DZNep and/or interferon alpha): does not play a major role in SARS-CoV-2 inhibition in vitro
released viral progeny in the supernatant by plaque assay [1]: dose-dependent suppression of the wt SARS-CoV-2
virus nucleoprotein (NP) expression by western blot [2]: potent antiviral effect against SARS-CoV-2
antiviral effect against SARS-CoV, expression of viral protein N [3]: do not observe an antiviral effect
inhibition of SARS-CoV-2 in primary human ex-vivo infection model [4]: potent inhibitor of SARS-CoV-2
expression of viral proteins (SARS-CoV-2) by mass spectrometry [5]: clear reduction
abundance changes of NP and spike (S), SARS-CoV-2 ([5]; A549-ACE2 (0.75 μM, 24 h) and NHBEs (1.5 μM, 36 h)): DZNep-dependent inhibition of SARS-CoV-2
abundance of innate immunity related factors (e.g. IL1RN, C3 and TNFAIP3/A20) (NHBE cells): DZNep-dependent changes in abundance
factors counteracting fibrotic processes (e.g. ELAFIN, SLPI and ECM1) (NHBE cells): up-regulation of factors counteracting fibrotic processes
factors of extrinsic coagulation cascade (e.g. F3 and TFPI2) and plasminogen activation system (e.g. PAI1, PLAT, PLAU) (NHBE cells): reduction of factors of extrinsic coagulation cascade
pulmonary fibrosis biomarkers (e.g. COL4A1, MMP14 and SERPINE1) (NHBE cells): reduction of pulmonary fibrosis biomarkers
IL6 secretion/expression by ELISA (IL6): significantly reduced IL6 expression in all tested conditions
IP-10 secretion by ELISA (IP-10): IP-10 secretion was enhanced
antiviral activity against SARS-CoV in an in vivo infection model (SARS-CoV): did not show antiviral activity against SARS-CoV

CNc1ccc(/C=C/c2c(F)cccc2Cl)cc1 [FIDAS-5, (E)-4-(2-chloro-6-fluorostyryl)-N-methylaniline]
antiviral activity of co-treatment with DZNep (SARS-CoV-2-GFP): synergistic antiviral activity
antiviral activity: growth of SARS-CoV-2-GFP reporter virus (SARS-CoV-2-GFP): have antiviral activity against SARS-CoV-2
released viral progeny in the supernatant by plaque assay [1]: dose-dependent suppression of the wt SARS-CoV-2

CCN(CCO)CCCC(C)Nc1ccnc2cc(Cl)ccc12 (stereo not drawn) [Hydroxychloroquine]
influence of DZNep co-treatment on the antiviral efficacy of the compound (SARS-CoV-2-GFP): does not negatively influence the antiviral efficacy

Cc1nc2ccc(-c3c(Nc4ccccn4)[nH]c4c(-c5ccccc5)c(-c5ccccc5)nn4c3=O)cc2s1 [MAT2A inhibitor 1]
antiviral activity: growth of SARS-CoV-2-GFP reporter virus (SARS-CoV-2-GFP): have antiviral activity against SARS-CoV-2

CN(C)CCc1nnc2cc(-c3ccccc3)c3cc(Cl)ccc3n12 [PF-9366, 2-(7-Chloro-5-phenyl-[1,2,4]triazolo[4,3-a]quinolin-1-yl)-N,N-dimethylethan-1-amine]
antiviral activity: growth of SARS-CoV-2-GFP reporter virus (SARS-CoV-2-GFP): have antiviral activity against SARS-CoV-2

CC(C)NC[C@@H](C(=O)N1CCN(c2ncnc3c2[C@H](C)C[C@H]3O)CC1)c1ccc(Cl)cc1 [ipatasertib]
influence of DZNep co-treatment on the antiviral efficacy of the compound (SARS-CoV-2-GFP): does not negatively influence the antiviral efficacy

CNC(=O)[C@@H](NC(=O)[C@H](CC(C)C)[C@H](O)C(=O)NO)C(C)(C)C [marimastat]
influence of DZNep co-treatment on the antiviral efficacy of the compound (SARS-CoV-2-GFP): does not negatively influence the antiviral efficacy

IFN-α
synergy of combination with DZNep (combination index, CI) (SARS-CoV-2-GFP): strong synergism
